Source: BindingDB's records for patent US20230322822 (Chengdu Di''Ao Jiuhong Pharmaceutical Factory, 2023)

Tests used:
[1] = target: Epidermal growth factor receptor (Homo sapiens, UniProt P00533); assay: EGFR kinase Enzymatic Activity Test 1
Description: (§1) To assess the effect of compounds on the activity of wild-type and mutant EGFR kinases, kinase activity was tested by measuring ATP consumption in an enzymatic reaction using an ADP-Glo (Promega Corporation) kit. Samples to be tested were dissolved in DMSO and diluted in a gradient. In a microplate, an EGFR kinase, a reaction buffer (containing Tris-HCl with a pH of 7.5, MgCl2, DTT and BSA), a kinase substrate Poly(Glu4, Tyr1) and a sample (a total volume of 20 μL per well) were added per well, while a blank control (no enzyme and sample) and a negative control (no sample) were set up; incubated for 15 minutes at 23° C.; added with 5 μL of ATP, and reacted at 23° C. for 60 minutes; added with ADP-Glo Reagent, and continuously reacted for 40 minutes at room temperature to inactivate the redundant ATP; then, added with a Kinase Detection Reagent, and reacted at room temperature for 30 minutes, then the chemiluminescence intensity L of each well was measured. […] IC50 values were calculated according to the above calculation using 4Parameter Logistic Model in XLfit software.

[2] = target: Epidermal growth factor receptor [T790M,L858R] (Homo sapiens, UniProt P00533, L858R/T790M); assay: EGFR kinase Enzymatic Activity Test 1
Chain of Epidermal growth factor receptor [T790M,L858R] (P00533 25-1210 T790M/L858R limits assumed): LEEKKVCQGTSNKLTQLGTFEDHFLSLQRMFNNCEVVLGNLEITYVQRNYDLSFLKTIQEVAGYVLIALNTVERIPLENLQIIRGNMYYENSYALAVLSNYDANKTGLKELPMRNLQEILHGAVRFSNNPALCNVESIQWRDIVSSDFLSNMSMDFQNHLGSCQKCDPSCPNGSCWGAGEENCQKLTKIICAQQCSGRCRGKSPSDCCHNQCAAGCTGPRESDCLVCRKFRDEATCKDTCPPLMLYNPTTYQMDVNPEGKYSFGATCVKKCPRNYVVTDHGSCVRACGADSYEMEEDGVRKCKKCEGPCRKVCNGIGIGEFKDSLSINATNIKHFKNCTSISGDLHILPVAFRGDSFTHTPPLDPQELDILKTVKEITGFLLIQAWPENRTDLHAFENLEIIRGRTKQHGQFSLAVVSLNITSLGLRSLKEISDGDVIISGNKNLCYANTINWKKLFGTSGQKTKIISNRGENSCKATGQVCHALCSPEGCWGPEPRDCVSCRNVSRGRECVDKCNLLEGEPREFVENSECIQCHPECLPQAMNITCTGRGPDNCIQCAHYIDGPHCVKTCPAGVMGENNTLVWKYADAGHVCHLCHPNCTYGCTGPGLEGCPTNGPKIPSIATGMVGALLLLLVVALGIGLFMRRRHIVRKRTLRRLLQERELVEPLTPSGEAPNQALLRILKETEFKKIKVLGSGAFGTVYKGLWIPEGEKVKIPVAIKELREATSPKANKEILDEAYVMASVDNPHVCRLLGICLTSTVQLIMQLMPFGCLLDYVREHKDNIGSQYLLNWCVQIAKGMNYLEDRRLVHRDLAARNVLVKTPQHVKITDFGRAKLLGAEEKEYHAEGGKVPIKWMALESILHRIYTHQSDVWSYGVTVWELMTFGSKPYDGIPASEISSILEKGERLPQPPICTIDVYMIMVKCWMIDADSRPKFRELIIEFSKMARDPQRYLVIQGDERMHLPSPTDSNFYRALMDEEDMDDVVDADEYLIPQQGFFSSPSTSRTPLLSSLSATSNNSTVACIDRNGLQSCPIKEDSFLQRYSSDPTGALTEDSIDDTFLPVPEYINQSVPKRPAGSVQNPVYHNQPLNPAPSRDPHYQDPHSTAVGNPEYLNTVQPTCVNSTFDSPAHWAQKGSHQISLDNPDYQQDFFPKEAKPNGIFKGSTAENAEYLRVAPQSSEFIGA
Description: as §1

Chain of Epidermal growth factor receptor (P00533 whole entry): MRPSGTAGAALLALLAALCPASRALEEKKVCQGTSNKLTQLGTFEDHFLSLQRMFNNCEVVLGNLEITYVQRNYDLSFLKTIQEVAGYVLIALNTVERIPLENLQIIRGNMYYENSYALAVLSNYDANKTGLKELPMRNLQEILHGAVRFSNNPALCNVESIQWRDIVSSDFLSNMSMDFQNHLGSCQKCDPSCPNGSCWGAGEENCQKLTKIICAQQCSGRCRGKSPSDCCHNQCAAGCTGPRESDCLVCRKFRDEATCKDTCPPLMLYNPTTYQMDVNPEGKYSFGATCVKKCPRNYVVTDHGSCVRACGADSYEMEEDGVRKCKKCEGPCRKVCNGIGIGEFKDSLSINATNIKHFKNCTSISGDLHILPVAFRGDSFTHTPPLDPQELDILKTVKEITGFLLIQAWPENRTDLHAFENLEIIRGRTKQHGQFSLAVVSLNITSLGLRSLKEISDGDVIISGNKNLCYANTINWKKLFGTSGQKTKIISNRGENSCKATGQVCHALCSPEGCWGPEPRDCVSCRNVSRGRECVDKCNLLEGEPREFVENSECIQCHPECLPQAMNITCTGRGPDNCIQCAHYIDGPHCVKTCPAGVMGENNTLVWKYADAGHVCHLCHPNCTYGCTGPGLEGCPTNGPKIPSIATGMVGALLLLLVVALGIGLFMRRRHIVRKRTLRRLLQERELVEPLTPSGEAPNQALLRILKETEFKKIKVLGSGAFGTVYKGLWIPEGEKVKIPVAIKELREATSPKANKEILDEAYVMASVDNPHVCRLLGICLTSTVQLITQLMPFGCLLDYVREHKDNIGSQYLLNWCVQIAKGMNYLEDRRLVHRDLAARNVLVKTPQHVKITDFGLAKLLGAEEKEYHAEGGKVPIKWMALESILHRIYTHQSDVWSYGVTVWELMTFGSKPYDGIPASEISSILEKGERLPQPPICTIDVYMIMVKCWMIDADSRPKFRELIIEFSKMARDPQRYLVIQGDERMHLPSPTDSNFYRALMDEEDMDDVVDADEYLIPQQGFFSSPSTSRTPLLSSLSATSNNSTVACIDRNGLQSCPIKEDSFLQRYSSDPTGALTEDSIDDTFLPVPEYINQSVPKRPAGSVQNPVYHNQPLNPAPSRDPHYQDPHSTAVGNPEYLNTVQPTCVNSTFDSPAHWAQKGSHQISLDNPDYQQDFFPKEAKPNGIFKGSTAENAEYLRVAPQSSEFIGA

IC50 [1]: 0.169 µM
IC50 [2]: 0.0248 µM
Compound: COc1cc(N2CCC(N3CCN(C)CC3)CC2)c(C)cc1Nc1ncc(Br)c(Nc2ccc(C)cc2P(C)(C)=O)n1 [US20230322822, Compound 2]
